Among the data in patent US20200331850A1, “NOVEL SULFONAMIDE CARBOXAMIDE COMPOUNDS” (Inflazome Limited, priority 2017, published 2020) are IC50 values, retold here.

As usually defined, the IC50 is the concentration at which inhibition is half-maximal.

Test [1] has as its target T1, NLRP3 (Homo sapiens, UniProt Q96P20). In words: THP-1 cells pyroptosis assay (LPS + nigericin, resazurin readout). On the set-up: Seed THP-1 cells (25,000 cells/well) containing 1.0 μg/ml LPS in 40 μl of RPMI medium; host or cells: THP-1 cells, LPS-primed and nigericin-stimulated. It counts as cell-based. To be noted: NLRP3 inhibitory activity in THP-1 cells, 1.0 μg/ml LPS, 5 μM nigericin. From the text:
It is well established that the activation of NLRP3 leads to cell pyroptosis and this feature plays an important part in the manifestation of clinical disease (Yan-gang Liu et al., Cell Death & Disease, 2017, 8(2), e2579; Alexander Wree et al., Hepatology, 2014, 59(3), 898-910; Alex Baldwin et al., Journal of Medicinal Chemistry, 2016, 59(5), 1691-1710; Ema Ozaki et al., Journal of Inflammation Research, 2015, 8, 15-27; Zhen Xie & Gang Zhao, Neuroimmunology Neuroinflammation, 2014, 1(2), 60-65; Mattia Cocco et al., Journal of Medicinal Chemistry, 2014, 57(24), 10366-10382; T. Satoh et al., Cell Death & Disease, 2013, 4, e644). Therefore, it is anticipated that inhibitors of NLRP3 will block pyroptosis, as well as the release of pro-inflammatory cytokines (e.g. IL-1β) from the cell. THP-1 cells (ATCC # TIB-202) were grown in RPMI containing L-glutamine (Gibco #11835) supplemented with 1 mM sodium pyruvate (Sigma # S8636) and penicillin (100 units/ml)/streptomycin (0.1 mg/ml) (Sigma # P4333) in 10% Fetal Bovine Serum (FBS) (Sigma # F0804). The cells were routinely passaged and grown to confluency (˜10^6 cells/ml). On the day of the experiment, THP-1 cells were harvested and resuspended into RPMI medium (without FBS). The cells were then counted and viability (>90%) checked by Trypan blue (Sigma # T8154). Appropriate dilutions were made to give a concentration of 625,000 cells/ml. To this diluted cell solution was added LPS (Sigma # L4524) to give a […] Final Assay Concentration (FAC). 40 μl of the final preparation was aliquoted into each well of a 96-well plate. The plate thus prepared was used for compound screening. The following method step-by-step assay was followed for compound screening. • 1. Seed THP-1 cells (25,000 cells/well) containing 1.0 μg/ml LPS in 40 μl of RPMI medium (without FBS) in 96-well, black walled, clear bottom cell culture plates coated with poly-D-lysine (VWR #734-0317) • 2. Add 5 μl compound (8 points half-log dilution, with 10 μM top dose) or vehicle (DMSO 0.1% FAC) to the appropriate wells • 3. […] Add 5 μl nigericin (Sigma # N7143) (FAC 5 μM) to all wells • 5. […] At the end of the incubation period, spin plates at 300×g for 3 mins and remove supernatant • 7. Then add 50 μl of resazurin (Sigma # R7017) (FAC 100 μM resazurin in RPMI medium without FBS) and incubate plates for a further 1-2 hrs at 37° C. and 5% CO2 • 8. Plates were read in an Envision reader at Ex 560 nm and Em 590 nm • 9. IC50 data is fitted to a non-linear regression equation (log inhibitor vs response-variable slope 4-parameters) The results of the pyroptosis assay performed are summarised in Table 1 below as THP IC50.
(In general: Resazurin is reduced to fluorescent resorufin, in cell work by metabolically active cells.)

For test [2], the target named is T1, NLRP3. In words: Human whole blood IL1β release assay (LPS + nigericin, AlphaLisa IL-1β). The test is classed as cell-based. The conditions noted are these: NLRP3 inhibitory activity in human whole blood, IL-1β release, 10 μM nigericin, read-out: HWB IC50. On the set-up: Plate out 80 μl of whole blood containing 1βg/ml of LPS in 96-well, clear bottom cell culture plate; from tissue; host or cells: human whole blood from healthy donors, LPS-primed and nigericin-stimulated. As to the method: For systemic delivery, the ability to inhibit NLRP3 when the compounds are present within the bloodstream is of great importance. For this reason, the NLRP3 inhibitory activity of a number of compounds in human whole blood was investigated in accordance with the following protocol.
Human whole blood in Li-heparin tubes was obtained from healthy donors from a volunteer donor panel. • 1. Plate out 80 μl of whole blood containing 1βg/ml of LPS in 96-well, clear bottom cell culture plate (Corning #3585) • 2. Add 10 μl compound (8 points half-log dilution with 10 μM top dose) or vehicle (DMSO 0.1% FAC) to the appropriate wells • 3. Incubate for 3 hrs at 37° C., 5% CO2 • 4. Add 10 μl Nigericin (Sigma # N7143) (10 μM FAC) to all wells • 5. Incubate for 1 hr at 37° C., 5% CO2 • 6. At the end of the incubation period, spin plates at 300×g for 5 mins to pellet cells and remove 20 μl of supernatant and add to 96-well v-bottom plates for IL-1β analysis (note: these plates containing the supernatants can be stored at −80° C. to be analysed at a later date) • 7. IL-1β was measured according to the manufacturer protocol (Perkin Elmer-AlphaLisa IL-1 Kit AL220F-5000) • 8. IC50 data is fitted to a non-linear regression equation (log inhibitor vs response-variable slope 4-parameters)

Where a name gives a salt, the structure may show the parent alone.

T1 sequence (Q96P20 whole entry): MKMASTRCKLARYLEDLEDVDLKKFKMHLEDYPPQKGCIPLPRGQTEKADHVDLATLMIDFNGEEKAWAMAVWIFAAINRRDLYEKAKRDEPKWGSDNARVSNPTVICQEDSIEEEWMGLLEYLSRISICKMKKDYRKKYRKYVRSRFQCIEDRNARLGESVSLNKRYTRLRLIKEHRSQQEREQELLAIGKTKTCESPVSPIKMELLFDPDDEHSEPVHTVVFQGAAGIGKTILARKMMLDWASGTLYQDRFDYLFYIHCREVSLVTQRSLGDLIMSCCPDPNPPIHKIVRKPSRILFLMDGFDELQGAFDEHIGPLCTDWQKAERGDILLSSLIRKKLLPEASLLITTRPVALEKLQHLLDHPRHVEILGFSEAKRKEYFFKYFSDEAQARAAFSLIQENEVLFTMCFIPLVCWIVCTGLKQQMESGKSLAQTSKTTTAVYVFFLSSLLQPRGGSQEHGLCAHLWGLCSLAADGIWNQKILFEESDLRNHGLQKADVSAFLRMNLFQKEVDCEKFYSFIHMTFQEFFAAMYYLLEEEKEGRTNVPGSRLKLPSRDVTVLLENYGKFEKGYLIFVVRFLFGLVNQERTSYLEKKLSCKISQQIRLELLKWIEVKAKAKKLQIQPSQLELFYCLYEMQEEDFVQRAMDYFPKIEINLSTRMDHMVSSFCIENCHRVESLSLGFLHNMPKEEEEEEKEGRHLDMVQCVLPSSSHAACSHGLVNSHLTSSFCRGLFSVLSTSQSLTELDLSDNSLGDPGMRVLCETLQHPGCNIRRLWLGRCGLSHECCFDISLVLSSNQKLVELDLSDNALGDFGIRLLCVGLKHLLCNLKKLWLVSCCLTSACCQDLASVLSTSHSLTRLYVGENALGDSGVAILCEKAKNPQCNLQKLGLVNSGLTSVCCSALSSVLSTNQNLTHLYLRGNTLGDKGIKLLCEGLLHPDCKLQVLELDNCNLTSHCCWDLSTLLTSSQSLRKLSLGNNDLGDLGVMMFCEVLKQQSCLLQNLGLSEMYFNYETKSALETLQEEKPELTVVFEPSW

Regarding `CC(C)c1cc(F)cc(-c2ccnc(C#N)c2)c1NC(=O)NS(=O)(=O)CC1CCN(C)C1` (stereo not shown) [Example 57, N-((2-(2-Cyanopyridin-4-yl)-4-fluoro-6-isopropylphenyl)carbamoyl)-1-(1-methylpyrrolidin-3-yl)methanesulfonamide], the IC50 in test [1] is 2000 to 10000 nM.

In the case of `NCCCS(=O)(=O)NC(=O)Nc1c2c(cc3c1CCC3)CCC2` [Example 65, 3-Amino-N-((1,2,3,5,6,7-hexahydro-s-indacen-4-yl)carbamoyl) propane-1-sulfonamide potassium salt], the IC50 in test [1] was 2000 to 10000 nM.

For `O=C(Nc1c2c(cc3c1CCC3)CCC2)NS(=O)(=O)C1(CN2CCC2)CC1` [Example 87, 1-(Azetidin-1-ylmethyl)-N-((1,2,3,5,6,7-hexahydro-s-indacen-4-yl)carbamoyl)cyclopropane-1-sulfonamide], the IC50 in test [1] was in the range of 1600 to 2000 nM.

As for `CC1(C)C2CC[C@@]1(CS(=O)(=O)NC(=O)Nc1c3c(cc4c1CCC4)CCC3)C(N)C2` (stereo partly drawn) [Example 85, 1-((1S)-2-Amino-7,7-dimethylbicyclo[2.2.1]heptan-1-yl)-N-((1,2,3,5,6,7-hexahydro-s-indacen-4-yl)carbamoyl)methanesulfonamide], the 50% inhibitory concentration (IC50) in test [1] fell in the range of 2000 to 10000 nM.

With `C[N+](C)(C)CCCS(=O)(=O)NC(=O)Nc1c2c(cc3c1CCC3)CCC2` [Example 66, 3-(N-((1,2,3,5,6,7-Hexahydro-s-indacen-4-yl)carbamoyl)sulfamoyl)-N,N,N-trimethylpropan-1-aminium, Potassium Salt], the IC50 in test [1] lay in the range of 2000 to 10000 nM.

Turning to `CN1CCC(CS(=O)(=O)NC(=O)Nc2c3c(cc4c2CCC4)CCC3)CC1` [Example 22, N-((1,2,3,5,6,7-Hexahydro-s-indacen-4-yl)carbamoyl)-1-(1-methylpiperidin-4-yl)methanesulfonamide, Potassium Salt], in test [1], the IC50 lay within 2000 to 10000 nM.

For `CC(C)N1CC2(CC(S(=O)(=O)NC(=O)Nc3c4c(cc5c3CCC5)CCC4)C2)C1` [Example 39, N-((1,2,3,5,6,7-Hexahydro-s-indacen-4-yl)carbamoyl)-2-isopropyl-2-azaspiro[3.3]heptane-6-sulfonamide, potassium salt], the IC50 in test [1] lay within 2000 to 10000 nM.

For the compound `CCN1CC2(CC(S(=O)(=O)NC(=O)Nc3c4c(cc5c3CCC5)CCC4)C2)C1` [Example 38, 2-Ethyl-N-((1,2,3,5,6,7-hexahydro-s-indacen-4-yl)carbamoyl)-2-azaspiro[3.3]heptane-6-sulfonamide, potassium salt], the IC50 in test [1] was in the range of 2000 to 10000 nM.

As to `O=C(Nc1c2c(cc3c1CCC3)CCC2)NS(=O)(=O)CC1CCN(C2COC2)C1` (stereo not shown) [Example 64, N-((1,2,3,5,6,7-Hexahydro-s-indacen-4-yl)carbamoyl)-1-(1-(oxetan-3-yl)pyrrolidin-3-yl)methanesulfonamide, Potassium Salt], the IC50 in test [1] was in the range of 2000 to 10000 nM.

As for `CC(CN(C)C)S(=O)(=O)NC(=O)Nc1c2c(cc3c1CCC3)CCC2` (stereo not shown) [Example 26, 1-(Dimethylamino)-N-((1,2,3,5,6,7-hexahydro-s-indacen-4-yl)carbamoyl)propane-2-sulfonamide, potassium salt], the IC50 in test [1] lay in the range of 2000 to 10000 nM.

With `O=C(Nc1c2c(cc3c1CCC3)CCC2)NS(=O)(=O)CCCN1CCCCC1` [Example 16, N-((1,2,3,5,6,7-Hexahydro-s-indacen-4-yl)carbamoyl)-3-(piperidin-1-yl)propane-1-sulfonamide, Potassium Salt], in test [1], the IC50 was in the range of 1600 to 2000 nM.

With `CN1CC2(COC(CS(=O)(=O)NC(=O)Nc3c4c(cc5c3CCC5)CCC4)C2)C1` (stereo not shown) [Example 80, N-((1,2,3,5,6,7-Hexahydro-s-indacen-4-yl)carbamoyl)-1-(2-methyl-6-oxa-2-azaspiro[3.4]octan-7-yl)methanesulfonamide], the IC50 in test [2] is ≤ 5000 nM.

`COc1cc(-c2ccc3c(c2NC(=O)NS(=O)(=O)CCOC(C)C)CCO3)ccn1` [Example 62, 2-Isopropoxy-N-((5-(2-methoxypyridin-4-yl)-2,3-dihydro-benzofuran-4-yl)carbamoyl)ethanesulfonamide, sodium salt]: the 50% inhibitory concentration (IC50) in test [2] was ≤ 1000 nM.

For `CC(=O)N(C)CCCS(=O)(=O)NC(=O)Nc1c2c(cc3c1CCC3)CCC2` [Example 53, N-(3-(N-((1,2,3,5,6,7-Hexahydro-s-indacen-4-yl)carbamoyl)sulfamoyl)propyl)-N-methylacetamide, Potassium Salt], the IC50 in test [2] is ≤ 1000 nM.

Turning to `CCN1CCCC1CS(=O)(=O)NC(=O)Nc1c2c(cc3c1CCC3)CCC2` (stereo not shown) [Example 106, 1-(1-Ethylpyrrolidin-2-yl)-N-((1,2,3,5,6,7-hexahydro-s-indacen-4-yl)carbamoyl)methanesulfonamide], the IC50 in test [2] is ≤ 1000 nM.

As for `CC(C)n1ccc(CS(=O)(=O)NC(=O)Nc2c3c(cc4c2CCC4)CCC3)n1` [Example 111, N-((1,2,3,5,6,7-Hexahydro-s-indacen-4-yl)carbamoyl)-1-(1-isopropyl-1H-pyrazol-3-yl)methanesulfonamide], the IC50 in test [2] was ≤ 7500 nM.

On to `CC1(C)CCN1CCS(=O)(=O)NC(=O)Nc1c2c(cc3c1CCC3)CCC2` [Example 102, 2-(2,2-Dimethylazetidin-1-yl)-N-((1,2,3,5,6,7-hexahydro-s-indacen-4-yl)carbamoyl)ethane-1-sulfonamide], for which the IC50 in test [2] is ≤ 1000 nM.

Turning to `COCCCS(=O)(=O)NC(=O)Nc1c2c(cc3c1CCC3)CCC2` [Example 14, N-((1,2,3,5,6,7-Hexahydro-s-indacen-4-yl)carbamoyl)-3-methoxypropane-1-sulfonamide, Potassium Salt], in test [2], the IC50 was ≤ 5000 nM.

As to `CCN(CC)CCCS(=O)(=O)NC(=O)Nc1c(-c2ccncc2)cc(F)c2c1CCC2` [Example 44, 3-(Diethylamino)-N-((7-fluoro-5-(pyridin-4-yl)-2,3-dihydro-1H-inden-4-yl)carbamoyl)propane-1-sulfonamide], the IC50 in test [2] is ≤ 1000 nM.

Take `COC(=O)CCS(=O)(=O)NC(=O)Nc1c2c(cc3c1CCC3)CCC2` [Example 92, Methyl 3-(N-((1,2,3,5,6,7-hexahydro-s-indacen-4-yl)carbamoyl)sulfamoyl)propanoate]: the IC50 in test [2] was ≤ 7500 nM.

On to `CN(C)CC(C)(C)CS(=O)(=O)NC(=O)Nc1c2c(cc3c1CCC3)CCC2` [Example 81, 3-(Dimethylamino)-N-((1,2,3,5,6,7-hexahydro-s-indacen-4-yl)carbamoyl)-2,2-dimethylpropane-1-sulfonamide], for which the half-maximal inhibitory concentration (IC50) in test [2] was ≤ 5000 nM.

Regarding `CC(C)N1CCCC(CS(=O)(=O)NC(=O)Nc2c3c(cc4c2CCC4)CCC3)C1` (stereo not shown) [Example 93, N-((1,2,3,5,6,7-Hexahydro-s-indacen-4-yl)carbamoyl)-1-(1-isopropylpiperidin-3-yl)methanesulfonamide], the IC50 in test [2] was ≤ 1000 nM.
